Assay results: ChEMBL document CHEMBL4483862, “Open-source discovery of chemical leads for next-generation chemoprotective antimalarials” (2018)

Test system: Plasmodium berghei
Experiment: Luciferase/luciferin-expressing antifolate-resistant parasites were used to infect a culture of HepG2 cells that were pre-incubated with compounds. Infected hepatocytes emit light due to the luciferase reaction. Assay results are presented as the percent inhibition of light emission compared to control. […]
Type: functional
Conditions: sporozoite; for IC90: read-out: LUCIFERASE INFECTION ASSAY - IC90

SMILES	IC90	also measured
Cc1cccc(-c2nc3c(NCc4ccccc4)nccc3[nH]2)c1	9.18 µM	IC50 (PBLUC_HILL_SLOPE 2.29, PBLUC_R_SQUARED 0.394, read-out: LUCIFERASE INFECTION ASSAY - IC50): 3.51 µM
CC(C)(C)c1ccc(C(=O)NC(=S)Nc2nc3c(s2)CCCC3)cc1	8.77 µM	IC50 (PBLUC_HILL_SLOPE 2.3, PBLUC_R_SQUARED 0.829, read-out: LUCIFERASE INFECTION ASSAY - IC50): 3.37 µM
O=C(O)c1cnc2cc3c(cc2c1O)OCCO3	> 10 µM	IC50 (PBLUC_HILL_SLOPE 2.36, 2.10, PBLUC_R_SQUARED 0.249, 0.136, read-out: LUCIFERASE INFECTION ASSAY - IC50): 7.92 µM
Clc1ccc(-c2cnc3cnc(-c4ccncc4)cn23)cc1	4.84 µM	IC50 (PBLUC_HILL_SLOPE 2.25, PBLUC_R_SQUARED 0.741, read-out: LUCIFERASE INFECTION ASSAY - IC50): 1.82 µM
CS(=O)(=O)NCCc1ccc(C(=O)Nc2ncccc2O)cc1	> 10 µM	IC50 (PBLUC_HILL_SLOPE 2.26, PBLUC_R_SQUARED 0.152, read-out: LUCIFERASE INFECTION ASSAY - IC50): 6.59 µM
O=C(Nc1ccccn1)c1ccc(Cl)c(S(=O)(=O)N(Cc2ccccc2)c2ccccc2)c1	> 10 µM	IC50 (PBLUC_HILL_SLOPE 2.32, PBLUC_R_SQUARED 0.355, read-out: LUCIFERASE INFECTION ASSAY - IC50): 5.62 µM
O=C(CCn1c(-c2ccc(F)cc2)n[nH]c1=S)Nc1nc2c(s1)CCCC2	> 10 µM	IC50 (PBLUC_HILL_SLOPE 2.35, PBLUC_R_SQUARED 0.213, read-out: LUCIFERASE INFECTION ASSAY - IC50): 4.33 µM
Cc1cc(C(=O)CN2C(=O)NC3(CCCc4sccc43)C2=O)c(C)n1Cc1ccc2c(c1)OCO2 (configuration not stated)	> 10 µM	IC50 (PBLUC_HILL_SLOPE 2.26, PBLUC_R_SQUARED 0.443, read-out: LUCIFERASE INFECTION ASSAY - IC50): 8.17 µM
O=C(Nc1ncccc1O)c1ccc(Cn2cccn2)cc1	3.1 µM	IC50 (PBLUC_HILL_SLOPE 2.35, PBLUC_R_SQUARED 0.554, read-out: LUCIFERASE INFECTION ASSAY - IC50): 1.22 µM
COc1ccc(C2=NOC(C(N)=O)C2)cc1OC (configuration not stated)	9.25 µM	IC50 (PBLUC_HILL_SLOPE 2.3, PBLUC_R_SQUARED 0.443, read-out: LUCIFERASE INFECTION ASSAY - IC50): 3.55 µM
OC(c1ccc(F)c(Cl)c1)c1nnc(Nc2cccc(OC(F)(F)F)c2)s1 (configuration not stated)	> 10 µM	IC50 (PBLUC_HILL_SLOPE 2.34, PBLUC_R_SQUARED 0.225, read-out: LUCIFERASE INFECTION ASSAY - IC50): 9.05 µM
CC(=O)c1ccc(C#CCOC(=O)c2cccs2)s1	> 11.4 µM	IC50 (PBLUC_HILL_SLOPE 2.26, PBLUC_R_SQUARED 0.405, read-out: LUCIFERASE INFECTION ASSAY - IC50): 5.72 µM
Cc1ccc(NNC(=O)c2cc3ccccc3o2)cc1Cl	> 10 µM	IC50 (PBLUC_HILL_SLOPE 2.35, PBLUC_R_SQUARED 0.383, read-out: LUCIFERASE INFECTION ASSAY - IC50): 6.24 µM
COc1ccccc1-n1c(C)c(C)c2c1ncn1nc(-c3ccncc3)nc21	> 8.91 µM	IC50 (PBLUC_HILL_SLOPE 2.29, PBLUC_R_SQUARED 0.762, read-out: LUCIFERASE INFECTION ASSAY - IC50): > 8.91 µM
CN1c2ccccc2C(C)(C)C12C=Cc1c(ccc3oc4c(c13)CCCC4)O2 (configuration not stated)	> 10 µM	IC50 (PBLUC_HILL_SLOPE 2.26, PBLUC_R_SQUARED 0.401, read-out: LUCIFERASE INFECTION ASSAY - IC50): 8.28 µM
Cc1cc2ccccn2c1C(=O)c1cccc2nc3ccccc3nc12	> 10 µM	IC50 (PBLUC_HILL_SLOPE 2.29, PBLUC_R_SQUARED 0.419, read-out: LUCIFERASE INFECTION ASSAY - IC50): 7.29 µM
CCOC(=O)c1sc2ncn(-n3c(C)ccc3C)c(=O)c2c1C	7.62 µM	IC50 (PBLUC_HILL_SLOPE 2.28, PBLUC_R_SQUARED 0.71, read-out: LUCIFERASE INFECTION ASSAY - IC50): 2.9 µM
Cc1ccccc1-c1cnc2cnc(-c3ccc(N4CCN(C)CC4)nc3)cn12	> 8.58 µM	IC50 (PBLUC_HILL_SLOPE 2.3, PBLUC_R_SQUARED 0.345, read-out: LUCIFERASE INFECTION ASSAY - IC50): > 8.58 µM
COc1cccc(Nc2nccc3nc(-c4cccc(C(F)(F)F)c4)[nH]c23)c1	> 10 µM	IC50 (PBLUC_HILL_SLOPE 2.33, PBLUC_R_SQUARED 0.497, read-out: LUCIFERASE INFECTION ASSAY - IC50): 4.16 µM
COc1ccc(-c2nc3c(c(SCCN4CCCC4)n2)COC(C)(C)C3)cc1	> 8.26 µM	IC50 (PBLUC_HILL_SLOPE 2.26, PBLUC_R_SQUARED 0.135, read-out: LUCIFERASE INFECTION ASSAY - IC50): 5.35 µM
Cc1cc(C)c(NC(=NCc2ccc(Cl)cc2)Nc2c(C)cc(C)cc2C)c(C)c1	> 10 µM	IC50 (PBLUC_HILL_SLOPE 2.28, PBLUC_R_SQUARED 0.76, read-out: LUCIFERASE INFECTION ASSAY - IC50): 5.92 µM

SMILES	IC90	also measured
C=CCOC(=O)C1=C(C)N(c2ccc3c(c2)OCCO3)C(=S)NC1c1ccc(F)cc1F (configuration not stated)	> 10 µM	IC50 (PBLUC_HILL_SLOPE 2.28, PBLUC_R_SQUARED 0.442, read-out: LUCIFERASE INFECTION ASSAY - IC50): 5.73 µM
CCCCN1C(=O)/C(=C\c2ccc(O)c(OCC)c2)NC1=S	> 10 µM	IC50 (PBLUC_HILL_SLOPE 2.35, PBLUC_R_SQUARED 0.305, read-out: LUCIFERASE INFECTION ASSAY - IC50): 6.33 µM
O=C(Nc1cccc(NC(=O)c2ccccc2Nc2ccccc2)c1)c1ccco1	> 10 µM	IC50 (PBLUC_HILL_SLOPE 2.3, PBLUC_R_SQUARED 0.121, read-out: LUCIFERASE INFECTION ASSAY - IC50): 5.43 µM
OC(c1cccc(C(F)(F)F)c1)c1nnc(Nc2ccccc2)s1 (configuration not stated)	> 10 µM	IC50 (PBLUC_HILL_SLOPE 2.28, PBLUC_R_SQUARED 0.325, read-out: LUCIFERASE INFECTION ASSAY - IC50): 7.1 µM
CCN(CC)S(=O)(=O)N1CCN(C(=O)c2[nH]nc3ccccc23)CC1	3.63 µM	IC50 (PBLUC_HILL_SLOPE 2.28, PBLUC_R_SQUARED 0.575, read-out: LUCIFERASE INFECTION ASSAY - IC50): 1.39 µM
C/C(=N\NC(=O)c1sc2ccccc2c1Cl)c1ccc(C(C)(C)C)cc1	> 10 µM	IC50 (PBLUC_HILL_SLOPE 2.25, PBLUC_R_SQUARED 0.703, read-out: LUCIFERASE INFECTION ASSAY - IC50): 4.74 µM
Clc1nc(NCc2ccc3c(c2)OCO3)c2[nH]cnc2n1	> 10.9 µM	IC50 (PBLUC_HILL_SLOPE 2.33, PBLUC_R_SQUARED 0.359, read-out: LUCIFERASE INFECTION ASSAY - IC50): 9.8 µM
Cc1ccc(Nc2ccnc(Nc3ccc(C)cc3)n2)cc1	> 10 µM	IC50 (PBLUC_HILL_SLOPE 2.32, 3.33, PBLUC_R_SQUARED 0.458, 0.517, read-out: LUCIFERASE INFECTION ASSAY - IC50): 4.86 µM
O=C(Nc1ccc([N+](=O)[O-])cc1)Nc1cccnc1Cl	2.05 µM	IC50 (PBLUC_HILL_SLOPE 2.35, PBLUC_R_SQUARED 0.752, read-out: LUCIFERASE INFECTION ASSAY - IC50): 0.807 µM
CN(C)c1ccc(CNCC2(c3ccnc(-c4ccc(Cl)cc4)c3)CC2)cc1	> 10 µM	IC50 (PBLUC_HILL_SLOPE 2.32, PBLUC_R_SQUARED 0.214, read-out: LUCIFERASE INFECTION ASSAY - IC50): 6.36 µM
CCNC(=O)c1cc(Cl)c(OCc2ccccc2)c(OC)c1	> 10.3 µM	IC50 (PBLUC_HILL_SLOPE 2.26, PBLUC_R_SQUARED 0.647, read-out: LUCIFERASE INFECTION ASSAY - IC50): 5.81 µM
FC(F)(F)Oc1cccc(-c2cnc3sc(NCCN4CCOCC4)nn23)c1	> 7.98 µM	IC50 (PBLUC_HILL_SLOPE 2.27, PBLUC_R_SQUARED 0.551, read-out: LUCIFERASE INFECTION ASSAY - IC50): 5.39 µM
CC1(c2ccccc2)NC(=O)N(NC(=O)c2ccc(-c3ccccc3)cc2)C1=O (configuration not stated)	> 10 µM	IC50 (PBLUC_HILL_SLOPE 2.29, PBLUC_R_SQUARED 0.368, read-out: LUCIFERASE INFECTION ASSAY - IC50): 6.98 µM
O=C(NCc1ccccn1)c1nn(CCc2ccccc2)c2c1CN(Cc1cccc3c1OCO3)CC2	> 6.66 µM	IC50 (PBLUC_HILL_SLOPE 2.34, PBLUC_R_SQUARED 0.543, read-out: LUCIFERASE INFECTION ASSAY - IC50): 5.68 µM
Cc1cc(C(=O)COC(=O)c2ccc3[nH]c4c(c3c2)CCCC4)c(C)n1Cc1ccccc1Cl	4.61 µM	IC50 (PBLUC_HILL_SLOPE 2.26, PBLUC_R_SQUARED 0.534, read-out: LUCIFERASE INFECTION ASSAY - IC50): 1.74 µM
CC(C)c1nc2cc(NC(=O)CSc3nnnn3C3CC3)ccc2o1	> 10 µM	IC50 (PBLUC_HILL_SLOPE 2.34, PBLUC_R_SQUARED 0.391, read-out: LUCIFERASE INFECTION ASSAY - IC50): 3.99 µM
O=C(CN1CCN(Cc2cc(=O)oc3cc4c(cc23)CCC4)CC1)Nc1ccc(Cl)c(C(F)(F)F)c1	> 10 µM	IC50 (PBLUC_HILL_SLOPE 2.35, PBLUC_R_SQUARED 0.537, read-out: LUCIFERASE INFECTION ASSAY - IC50): 5.82 µM
CC1CCN(C(CNC(=O)N2CCc3sccc3C2)c2cccs2)CC1 (configuration not stated)	9.12 µM	IC50 (PBLUC_HILL_SLOPE 2.26, PBLUC_R_SQUARED 0.56, read-out: LUCIFERASE INFECTION ASSAY - IC50): 3.45 µM
Cc1ccc(Oc2ccc(NC(=O)c3cc(C)on3)cc2)cc1	4.67 µM	IC50 (PBLUC_HILL_SLOPE 2.32, PBLUC_R_SQUARED 0.861, read-out: LUCIFERASE INFECTION ASSAY - IC50): 1.81 µM
Cc1cc(-n2c(C)cc(/C=C3\S/C(=N\C4CCCC4)NC3=O)c2C)no1	> 10 µM	IC50 (PBLUC_HILL_SLOPE 2.3, PBLUC_R_SQUARED 0.376, read-out: LUCIFERASE INFECTION ASSAY - IC50): 5.21 µM
